Measurements reported in US11078152B2, “Method for resolution of baclofen salts” (Universite de Rouen, priority 2016, dated 2021).

How the values were obtained:
[1] = background statement, no test described; cited from earlier work
[2] = Determination of the solubility of the racemic Bahma salt in a given solvent at a given temperature; assay type: physicochemical; details: for Solubility 1M HCl: aqueous 1M HCl solution; for Solubility 2M HCl: aqueous 2M HCl solution; for Solubility: n-propanol/water azeotropic mixture; for Solubility Water: pure water
Protocol: Determination of the Solubility
The solubility of a Bahma salt in a given solvent was calculated, for a given temperature and in a given volume of solvent, via the following formula:
[formula] in which mBahma is the mass of the Bahma salt introduced in grams to reach saturation; ρsolvent is the density of the solvent in g.mL^−1; and Vsolvent is the volume of the solvent in mL.
The solubility of the racemic Bahma salt at various temperatures was determined in the n-propanol/water azeotropic mixture (ρ=0.870 g.mL^−1).
The solubility of the racemic Bahma salt at various temperatures was determined in pure water (ρ=1 g.mL^−1), in aqueous 1M HCl solution (ρ=1.017 g.mL^−1) and in aqueous 2M HCl solution (ρ=1.030 g.mL^−1).

NC[C@H](CC(=O)O)c1ccc(Cl)cc1 [R(−) enantiomer, (R)-4-amino-3-(4-chlorophenyl)butanoic acid]
activity relative to the S(+) enantiomer [1]: three times more active than the S(+) enantiomer

NCC(CC(=O)O)c1ccc(Cl)cc1.O=C(O)C=CC(=O)O (racemic) [racemic Bahma salt, baclofen hydrogen maleate]
Solubility 1M HCl ([2]; 20° C.): 4.51% | Solubility 1M HCl ([2]; 35° C.): 6.86% | Solubility 1M HCl ([2]; 50° C.): 12.54% | Solubility 2M HCl ([2]; 20° C.): 6.48% | Solubility 2M HCl ([2]; 35° C.): 11.44% | Solubility 2M HCl ([2]; 50° C.): 22.24% | Solubility ([2]; 20° C.): 1.49% | Solubility ([2]; 35° C.): 2.80% | Solubility ([2]; 50° C.): 4.81% | Solubility Water ([2]; 20° C.): 0.75% | Solubility Water ([2]; 35° C.): 1.00% | Solubility Water ([2]; 50° C.): 1.78%
